The record followed here is the OPERA property sets (Mansouri et al. 2018).

As a reminder, the logP is a log measure of how a compound divides between an organic and an aqueous phase. Consider `O=C(Oc1cc(O)c(Cl)cc1Cl)N1CCCC1`, for which the logP was found to be 2.98.

`O=[N+]([O-])c1ccc(Oc2ccccc2)cc1` registered a log partition coefficient (logP) of 3.92.

For the compound `CC(C)OC(=O)c1cc(OC(=O)N2CCCC2)c(F)cc1Cl`, the logP was determined as 4.22.

Compound `C#CCOc1cc(OC(=O)N2CCC(F)(F)C2)c(Cl)cc1Cl` gave a logP of 3.42.

The compound `COC(=O)c1cc(Oc2ccc(C(F)(F)F)cc2Cl)ccc1[N+](=O)[O-]` gave a logP of 4.26.

For `COC(=O)CON=C(C)c1cc(Oc2ccc(C(F)(F)F)cc2Cl)ccc1[N+](=O)[O-]`, the log partition coefficient (logP) was 4.54.

Take `C#CCOC1=Nc2cc(OC(=O)N3CCCC3)c(Cl)cc2OC1`: the logP is 2.93.

`COC(=O)c1cc(Oc2ccc(C(F)(F)F)cc2Cl)ccc1Cl` registered a lipophilicity (logP) of 5.04.

Consider `C=COC(=O)C(C)Oc1cc(Oc2ccc(C(F)(F)F)cc2Cl)ccc1[N+](=O)[O-]` (stereo unspecified), for which the logP was 4.54.

As for `Cc1cccc(Oc2ccc([N+](=O)[O-])cc2)c1`, the logP worked out at 4.4.

`O=C(Oc1ccc(Cl)cc1)N1CCCC1` returned a logP of 3.38.

As for `C#CCOc1cc(OC(=O)N2CCCCC2)c(Cl)cc1Cl`, the logP was found to be 4.25.

The compound `CCOC(=O)C(C)Oc1cc(Oc2ccc(C(F)(F)F)cc2Cl)ccc1[N+](=O)[O-]` (stereo unspecified) came in with a logP of 4.53.

For the compound `COC(=O)c1cc(Sc2ccc(C(F)(F)F)cc2Cl)ccc1[N+](=O)[O-]`, the logP was found to be 4.76.

For `O=C(O)COC(=O)c1cc(Oc2ccc(C(F)(F)F)cc2Cl)ccc1[N+](=O)[O-]`, the logP worked out at 4.27.

In turn, `CC(C)OC(=O)c1cc(OC(=O)N2CCCC2)c(Cl)cc1Cl` gave a lipophilicity (logP) of 4.67.

`COC(=O)c1cc(S(=O)(=O)c2ccc(C(F)(F)F)cc2Cl)ccc1[N+](=O)[O-]` returned a log partition coefficient (logP) of 3.57.

The compound `C#CCOc1cc(OC(=O)N2CCC(F)(F)CC2)c(Cl)cc1Cl` gave a lipophilicity (logP) of 3.57.

As to `COC(=O)c1cc(Oc2cc(C(F)(F)F)ccc2Cl)ccc1[N+](=O)[O-]`, the lipophilicity (logP) is 4.21.

Take `O=C(Oc1ccc(Cl)cc1Cl)N1CCCC1`: the lipophilicity (logP) was 3.94.

With `COC(=O)c1cc(S(=O)c2ccc(C(F)(F)F)cc2Cl)ccc1[N+](=O)[O-]` (stereo unspecified), the logP was 3.65.

The compound `Nc1c([N+](=O)[O-])ccc(Oc2ccccc2)c1Cl` displayed a logP of 4.04.

In the case of `CCOc1cc(Oc2ccc(C(F)(F)F)cc2Cl)ccc1[N+](=O)[O-]`, the logP worked out at 4.73.

Compound `C#CCOc1cc(OC(=O)N(CC)CC)c(Cl)cc1Cl` yielded a logP of 3.95.

In turn, `C#CCOc1cc(OC(=O)N2CCCC2)c(Cl)cc1Cl` displayed a logP of 3.82.

Compound `O=[N+]([O-])c1ccc(Oc2ccc(C(F)(F)F)cc2Cl)cc1` gave a logP of 4.54.

With `COC(=O)c1cc(OC(=O)N2CCCC2)c(Cl)cc1Cl`, the logP was determined as 3.95.

`O=[N+]([O-])c1ccc(Oc2ccc(C(F)(F)F)cc2Cl)cc1Oc1ccoc1`: the logP was found to be 4.33.

Consider `O=C(Oc1ccccc1Cl)N1CCCC1`, for which the logP amounted to 3.13.

With `O=C(Oc1ccccc1)N1CCCC1`, the logP was 2.73.

In turn, `CCOC(=O)C(C)OC(=O)c1cc(Oc2ccc(C(F)(F)F)cc2Cl)ccc1[N+](=O)[O-]` (stereo unspecified) gave a logP of 4.81.
